# Results taken from article PMC8891108, “Development and characterization of anti-fibrotic natural compound similars with improved effectivity” (Basic Research in Cardiology, 2022).
# Assays:
# Assay type in all cases: cell-based
# [1] = test system: human cardiac fibroblasts (HCF); test: BrdU incorporation, HCF proliferation (first screen); details: for EC50: Homo sapiens, Cardiac fibroblast, HCF, 24 h treatment, read-out: Effective conc. (BrdU), EC50 by BrdU assay
# Description: 96-well plates (TPP) were coated with 0.1% gelatine and seeded with 7500 HCFs/well. After 72 h, medium was exchanged with serial dilutions of compounds in FGM-3 + 1.6% DMSO + 1% 5-bromo-2′-deoxyuridine (BrdU, Roche, #11647229001), prepared in additional plates. After 24 h, cells were washed twice with DPBS (Gibco, #14190144) before incubation with anti-BrdU:POD (Roche, #11647229001) for 60 min (RT). Readout was performed by measurement of absorbance at 370 nm + 490 nm in a Synergy HT (BioTek) microplate reader. […] As validation, HCF were seeded as before, but treated with serial dilutions of compounds after 24 h. […] After 60 min of incubation (37 °C, in the dark), absorbance at 450 nm + 630 nm was measured maintaining 37 °C and analysed as described before.
# To assess screening quality, quality acceptance criteria Z′ (Z prime), SW (signal window), S:B (signal-to-background), S:N (signal-to-noise) were determined following. Average Z′ ≥ 0.5 and SW ≥ 2 were required to accept the screening overall, whereas single plates were rejected from analysis if Z′ < 0.3 or SW < 1.
# [2] = test system: human living myocardial slices; test: Ex vivo human living myocardial slices, qPCR gene expression; details: 48 h
# Source text: Myocardial slices were generated from human left ventricular heart specimens taken from failing hearts at the time of transplantation. Tissue was obtained from the Clinic for Cardiac, Thoracic, Transplant and Vascular Surgery at the Hannover Medical School (MHH), Hannover, Germany. Patients provided informed consent to the scientific use of the explanted tissue.
# The preparation and culture of myocardial slices has been described before. Briefly, human heart specimens were sliced into 300 µm thick slices using a vibrating microtome (Campden Instruments, #7000smz-2) while in ice-cold 30 mM 2,3-butanedione monoxime + 1 mM D-glucose + 10 mM HEPES + 6 mM KCl + 140 mM NaCl + 1 mM MgCl2 + 1.8 mM CaCl2 (cardioplegic Tyrode’s solution), before being trimmed into approx. 7 × 7 mm pieces of aligned muscle fibres.
# After 48 h in culture, myocardial slices were frozen in liquid nitrogen and stored at −80 °C for further gene expression analysis.
# (§1) A mix of forward and reverse primer pairs (10 µM, Eurofins) or 10 × Quantitect Primer Assay (Qiagen, #249900) was used for mRNA. To measure miRNA, RNA was reverse-transcribed using the miRNA TaqMan MicroRNA Reverse Transcription Kit (Applied Biosystems, #4366597) with specific miRNA RT primers (ThermoFisher, #4427975). cDNA was diluted 1:3 with dH2O before qPCR with Absolute Blue qPCR Mix (Abgene, #AB-4136/B) and the specific Taqman probes (ThermoFisher, #4427975). Runs were performed in ViiA7 (Applied Biosystems) or QuantStudio 7 Flex (Applied Biosystems). Real-time qPCR data were analysed as described elsewhere.
# [3] = test system: human cardiac fibroblasts (HCF); test: TaqMan Array Human MicroRNA Cards, miRNA deregulation in HCF
# Description: PCR amplification of array cards was performed as instructed. After quality control of all real-time qPCRs, cT values were exported and all runs were merged into a single excel file. Recommended baseline correction using relative thresholds to correct for varying reconstitution rates of different Taqman probes was not performed. Low-expressed miRNAs with cT > 32 in more than 1 replicate per treatment were excluded from analysis, before samples were normalized to column mean. Multiple unpaired t tests were performed using GraphPad Prism, deregulations were accepted as discoveries if FDR ≤ 1% (using BKY adjustment). As miRNA identifiers were based on miRbase v14, we converted them to the latest v22 for further analysis using miRBaseConverter. 747 sequences could be converted correctly, while the remaining miRNAs were removed from miRbase due to incorrect annotation (e.g. the sequences of hsa-miR-886-3p and hsa-miR-886-5p are part of VTRNA2-1 [44]) or no evidence of human expression.
# [4] = test system: human cardiac fibroblasts (HCF); test: nCounter Fibrosis Panel mRNA profiling of HCF; details: 24 h treatment
# Description: Briefly, 100 ng/5µL isolated total RNA of HCF after 24 h treatment (RIN > 7.5 and […] > 88%) was mixed with the hybridization Master Mix and incubated at 65 °C for 20 h before loading on a nCounter® FLEX (Department of Pathology, Hannover Medical School, Germany). All run files (.RCC) were compiled into a single experiment using the nSolver analysis software. […] Reference genes for normalization were determined by nSolver using all samples (ACAD9, ARMH3, CNOT10, GUSB, MTMR14, NOL7, NUBP1, PGK1, PPIA, RPLP0, see supplemental Fig. 4e, f). We then used the Advanced analysis plugin (v2.0.115) including LOT as confounder variable and BY adjusted p value < 0.05 for identification of central deregulated pathways. Additionally, normalized counts were further analysed with GraphPad Prism using multiple unpaired t tests with FDR ≤ 5% after BKY adjustment and log2 |FC| ≥ 1.
# [5] = test system: human cardiac fibroblasts (HCF); test: In vitro migration (scratch) assay of HCF; details: 10 × EC50
# Description: To assess migrative capabilities of HCF, cells were stained with 1:1000 1,1′-Dioctadecyl-3,3,3′,3′-Tetramethylindotricarbocyanine Iodide (DIR′) dye in FGM-3 for 20 min at 37 °C. Cells were washed with DPBS and seeded into 0.1% gelatine-coated 96-well plates at 30,000 cells per well. […] After 17 h and 24 h, plates were imaged again. Rate of migration was determined using the migrative index (MI).
# [6] = test system: human cardiac fibroblasts (HCF); test: miRNA mimic / inhibitor transfection before compound treatment, WST-1 readout
# Description: as §1
# To determine whether these miRNAs are part of and essential to the mechanism of action of the compounds, we transfected HCF with miR mimics or inhibitors of the miRNA candidates prior to compound treatment. If a miRNA is essential for the compounds’ mechanism, we would expect the absence of anti-proliferative effects after inhibition of this miRNA, whereas anti-proliferative effects would remain if the miRNA is rather a downstream element of the compound response.
# [7] = test system: human cardiac fibroblasts (HCF); test: Global RNA sequencing of treated HCF
# Source text: The NEBNext Ultra II Directional RNA Kit was used to prepare the samples (the same as for the nCounter® Fibrosis Panel, see above) for subsequent deep sequencing on a NovaSeq PE50 (Illumina) at HZI Braunschweig (Germany). Reads were trimmed and mapped to the human genome hg38.79 using RNA STAR (v2.4.2a, [11]) by HZI Braunschweig. RAW read counts were further analysed on Galaxy (v3.38.3, usegalaxy.org, [2]) using the limma-voom method. Low-expressed transcripts without more than 0.25 CPM (counts per million reads mapped) in at least 3 samples (42,079 of 61,043) were filtered out, and TMM (trimmed mean of M values) was the method used to normalise library sizes. Changes in transcript expression were considered significant if FDR [4] ≤ 0.05 and log2 |FC| ≥ 1.3.
# [8] = mean of DMSO minus mean of treatment
smiles,measurement,setting,value
"O[C@H]1[C@H]2c3cc4c(cc3CN3CCC(=C[C@@H]1O)[C@H]23)OCO4 [Lycorine, lycorine]",EC50,[1],2800 nM
same,FAP expression (qPCR),[2],not
same,MMP2 expression (qPCR),[2],not
same,"Mean of treatment, hsa-miR-30e-3p-000422",[3]; cT normalized to column mean,-5.454
same,"Mean of treatment, hsa-miR-16-000391",[3]; cT normalized to column mean,-6.115
same,"Mean of treatment, hsa-miR-28-3p-002446",[3]; cT normalized to column mean,-2.622
same,"Mean of treatment, hsa-miR-29a-002112",[3]; cT normalized to column mean,-7.899
same,"Mean of treatment, hsa-miR-30a-3p-000416",[3]; cT normalized to column mean,-5.962
same,"Mean of treatment, hsa-miR-31#-002113",[3]; cT normalized to column mean,-6.203
same,"Mean of treatment, hsa-miR-31-002279",[3]; cT normalized to column mean,-7.455
same,"Mean of treatment, hsa-miR-34a#-002316",[3]; cT normalized to column mean,-2.58
same,"Mean of treatment, hsa-miR-125a-5p-002198",[3]; cT normalized to column mean,-3.201
same,"Mean of treatment, hsa-miR-132-000457",[3]; cT normalized to column mean,-3.872
same,"Mean of treatment, hsa-miR-140-3p-002234",[3]; cT normalized to column mean,-1.119
same,"Mean of treatment, hsa-miR-151-3p-002254",[3]; cT normalized to column mean,-5.192
same,"Mean of treatment, hsa-miR-155-002623",[3]; cT normalized to column mean,-3.701
same,"Mean of treatment, hsa-miR-186-002285",[3]; cT normalized to column mean,-4.072
same,"Mean of treatment, hsa-miR-191-002299",[3]; cT normalized to column mean,-6.639
same,"Mean of treatment, hsa-miR-193b-002367",[3]; cT normalized to column mean,-4.73
same,"Mean of treatment, hsa-miR-222#-002097",[3]; cT normalized to column mean,-3.599
same,"Mean of treatment, hsa-miR-222-002276",[3]; cT normalized to column mean,-9.167
same,"Mean of treatment, hsa-miR-331-000545",[3]; cT normalized to column mean,-4.63
same,"Mean of treatment, hsa-miR-339-3p-002184",[3]; cT normalized to column mean,-0.6811
same,"Mean of treatment, hsa-miR-342-3p-002260",[3]; cT normalized to column mean,-3.089
same,"Mean of treatment, hsa-miR-376a-000565",[3]; cT normalized to column mean,-1.759
same,"Mean of treatment, hsa-miR-376c-002122",[3]; cT normalized to column mean,-3.539
same,"Mean of treatment, hsa-miR-409-3p-002332",[3]; cT normalized to column mean,-4.891
same,"Mean of treatment, hsa-miR-625#-002432",[3]; cT normalized to column mean,-4.373
same,"Mean of treatment, hsa-miR-1274B-002884",[3]; cT normalized to column mean,-9.621
same,"Difference / ΔCT, hsa-miR-30e-3p-000422",[3]; [8],0.9633
same,"Difference / ΔCT, hsa-miR-16-000391",[3]; [8],0.8517
same,"Difference / ΔCT, hsa-miR-28-3p-002446",[3]; [8],0.8307
same,"Difference / ΔCT, hsa-miR-29a-002112",[3]; [8],0.8647
same,"Difference / ΔCT, hsa-miR-30a-3p-000416",[3]; [8],0.8856
same,"Difference / ΔCT, hsa-miR-31#-002113",[3]; [8],0.5519
same,"Difference / ΔCT, hsa-miR-31-002279",[3]; [8],0.598
same,"Difference / ΔCT, hsa-miR-34a#-002316",[3]; [8],0.8439
same,"Difference / ΔCT, hsa-miR-125a-5p-002198",[3]; [8],0.6283
same,"Difference / ΔCT, hsa-miR-132-000457",[3]; [8],1.328
same,"Difference / ΔCT, hsa-miR-140-3p-002234",[3]; [8],0.7567
same,"Difference / ΔCT, hsa-miR-151-3p-002254",[3]; [8],0.604
same,"Difference / ΔCT, hsa-miR-155-002623",[3]; [8],1.386
same,"Difference / ΔCT, hsa-miR-186-002285",[3]; [8],1.039
same,"Difference / ΔCT, hsa-miR-191-002299",[3]; [8],0.8243
same,"Difference / ΔCT, hsa-miR-193b-002367",[3]; [8],0.5576
same,"Difference / ΔCT, hsa-miR-222#-002097",[3]; [8],1.599
same,"Difference / ΔCT, hsa-miR-222-002276",[3]; [8],0.8654
same,"Difference / ΔCT, hsa-miR-331-000545",[3]; [8],0.6606
same,"Difference / ΔCT, hsa-miR-339-3p-002184",[3]; [8],0.7187
same,"Difference / ΔCT, hsa-miR-342-3p-002260",[3]; [8],0.7149
same,"Difference / ΔCT, hsa-miR-376a-000565",[3]; [8],1.019
same,"Difference / ΔCT, hsa-miR-376c-002122",[3]; [8],0.5396
same,"Difference / ΔCT, hsa-miR-409-3p-002332",[3]; [8],0.9354
same,"Difference / ΔCT, hsa-miR-625#-002432",[3]; [8],0.6889
same,"Difference / ΔCT, hsa-miR-1274B-002884",[3]; [8],-0.4297
same,deregulation of fibrosis panel genes / pathways,[4],less deregulation (fold-change) compared to the other treatments
"COC(=O)C[C@](O)(CCCC(C)(C)O)C(=O)O[C@@H]1C(OC)=C[C@]23CCCN2CCc2cc4c(cc2[C@H]13)OCO4 [lyco-s, homoharringtonine]",inhibitory activity on HCF proliferation,[1]; BrdU incorporation,showed inhibitory activity
same,EC50 fold lower than the EC50 of lycorine,[1]; HCF proliferation,over 100 fold
same,EC50,[1],34 nM
same,FAP expression (qPCR),[2],significant down-regulation
same,MMP2 expression (qPCR),[2],significant down-regulation
same,HCF migration,[5],repressed migration only after several hours
same,"Mean of treatment, hsa-miR-28-3p-002446",[3]; cT normalized to column mean,-2.759
same,"Mean of treatment, hsa-miR-342-3p-002260",[3]; cT normalized to column mean,-3.581
same,"Difference / ΔCT, hsa-miR-28-3p-002446",[3]; [8],0.9679
same,"Difference / ΔCT, hsa-miR-342-3p-002260",[3]; [8],1.208
same,anti-proliferative effect after inhibition of hsa-miR-132-3p,[6],protected
same,anti-proliferative effect after overexpression of hsa-miR-125a-5p,[6],partially protected against the anti-proliferative effect
same,deregulation of fibrosis panel genes / pathways,[4],"repressed genes related to endothelial mesenchymal transition (EMT), ECM homeostasis as well as collagen biosynthesis"
same,downregulation of high- to medium-expressed collagen isoforms,[7],approx. 90%
same,"expression of FN1, PTN and BGN",[7],significantly downregulated
same,differentially expressed genes (DEGs) vs DMSO control,[7]; RNA sequencing,over 4000
same,expression of collagen isoforms,[7]; top 20 expressed isoforms,approx. tenfold
